# Data taken from patent US7550456B2, “Substituted aryl cycloalkanoyl derivatives and methods of their use” (Wyeth, priority 2003, dated 2009).
# Structures can show the parent of a compound that is named as a salt.
# Biological target: T1, human hNET (Homo sapiens, UniProt P23975)
# T1 construct: expressed in transfected cells; host or cells: MDCK-Net6 (MDCK cells, stably transfected)
# Experiment: Norepinephrine (NE) uptake assay in MDCK-Net6 cells
# Assay type: cell-based
# Conditions: 1 μM test compound, [3H]NE uptake, read-out: % Inhibition @ 1 μM (hNET)
# Experimental: Cells were plated at 300,000/T75 flask and cells were split twice weekly. […] Cells were plated at 250,000 cells/T75 flask and split twice weekly.
# Norepinephrine (NE) Uptake Assay
# On day 1, cells were plated at 3,000 cells/well in growth medium and maintained in a cell incubator (37° C., 5% CO2). On day 2, growth medium was replaced with 200 μl of assay buffer (25 mM HEPES; 120 mM NaCl; 5 mM KCl; 2.5 mM CaCl2; 1.2 mM MgSO4; 2 mg/ml glucose (pH 7.4, 37° C.)) containing 0.2 mg/ml ascorbic acid and 10 μM pargyline. Plates containing cells with 200 μl of assay buffer were equilibrated for 10 minutes at 37° C. prior to addition of compounds. A stock solution of desipramine was prepared in DMSO (10 mM) and delivered to triplicate wells containing cells for a final test concentration of 1 μM. Data from these wells were used to define non-specific NE uptake (minimum NE uptake). Test compounds were prepared in DMSO (10 mM) and diluted in assay buffer according to test range (1 to 10,000 nM). Twenty-five microliters of assay buffer (maximum NE uptake) or test compound were added directly to triplicate wells containing cells in 200 μl of assay buffer. The cells in assay buffer with test compounds were incubated for 20 minutes at 37° C. […] The reaction was terminated by decanting the supernatant from the plate. The plates containing cells were washed twice with 200 μl assay buffer (37° C.) to remove free radioligand. The plates were then inverted, left to dry for 2 minutes, then reinverted and air-dried for an additional 10 minutes. The cells were lysed in 25 μl of 0.25 N NaOH solution (4° C.), placed on a shake table and vigorously shaken for 5 minutes. After cell lysis, 75 μl of scintillation cocktail was added to each well and the plates were sealed with film tape. The plates were returned to the shake table and vigorously shaken for a minimum of 10 minutes to ensure adequate partitioning of organic and aqueous solutions. The plates were counted in a Wallac Microbeta counter (PerkinElmer) to collect the raw cpm data.
# For each experiment, a data stream of cpm values collected from the Wallac Microbeta counter was downloaded to a Microsoft Excel statistical application program. Calculations of EC50 values were made using the transformed-both-sides logistic dose response program written by Wyeth Biometrics Department.
# T1 sequence (P23975 whole entry): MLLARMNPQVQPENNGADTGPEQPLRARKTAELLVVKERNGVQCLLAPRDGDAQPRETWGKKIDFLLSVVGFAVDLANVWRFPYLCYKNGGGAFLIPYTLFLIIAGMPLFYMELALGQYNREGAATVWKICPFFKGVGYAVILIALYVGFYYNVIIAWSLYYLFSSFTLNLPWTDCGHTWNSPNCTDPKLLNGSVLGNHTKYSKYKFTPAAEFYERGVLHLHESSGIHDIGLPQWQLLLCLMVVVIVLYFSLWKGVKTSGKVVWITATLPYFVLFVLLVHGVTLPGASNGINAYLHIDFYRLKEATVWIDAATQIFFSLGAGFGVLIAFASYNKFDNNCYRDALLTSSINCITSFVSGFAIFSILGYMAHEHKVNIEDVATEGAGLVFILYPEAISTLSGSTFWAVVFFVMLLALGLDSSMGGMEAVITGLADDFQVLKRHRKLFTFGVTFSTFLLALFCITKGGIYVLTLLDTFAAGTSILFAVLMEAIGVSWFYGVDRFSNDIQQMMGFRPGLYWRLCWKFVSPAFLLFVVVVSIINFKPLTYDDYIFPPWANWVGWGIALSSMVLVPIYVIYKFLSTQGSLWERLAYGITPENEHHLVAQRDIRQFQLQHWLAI
row,Compound,inhibition at 1 µM
1,"CN1CCN(CC(c2ccc(-c3ccccc3)cc2)C2(O)CCCCC2)CC1 (stereo not drawn) [Example 158, 1-[1-(1,1′-biphenyl-4-yl)-2-(4-methylpiperazin-1-ylethyl]cyclohexanoldihydrochloride]",57%
2,"OC1(C(CN2CCNCC2)c2cccc(-c3ccccc3)c2)CCCCC1 (stereo not drawn) [Example 136, 1-[1-(1,1′-biphenyl-3-yl)-2-piperazin-1-ylethyl]cyclohexanol dihydrochloride]",62%
3,"C[C@@H]1CN(C[C@H](c2cccc(OC(F)(F)F)c2)C2(O)CCCCC2)C[C@H](C)N1C [Example 368, 1-{(1S)-1-[3-(trifluoromethoxy)phenyl]-2-[(3R,5S)-3,4,5-trimethylpiperazin-1-yl]ethyl}cyclohexanol dihydrochloride]",93%
4,"CN1CCN(CC(c2ccc(OCc3cccc(C(F)(F)F)c3)cc2)C2(O)CCCCC2)CC1 (stereo not drawn) [Example 439, 1-[2-(4-methylpiperazin-1-yl)-1-(4-{[3-(trifluoromethyl)benzyl]oxy}phenyl)ethyl]cyclohexanol dihydrochloride]",79%
5,"OC1(C(CN2CCNCC2)c2cccc(-c3ccc(Cl)c(Cl)c3)c2)CCCCC1 (stereo not drawn) [Example 135, 1-[1-(3′,4′-dichloro-1,1′-biphenyl-3-yl)-2-piperazin-1-ylethyl]cyclohexanol dihydrochloride]",65%
6,"Cc1ccc(-c2ccc(C(CN3CCN(C)CC3)C3(O)CCCCC3)cc2)cc1 (stereo not drawn) [Example 181, 1-[1-(4′-methyl-1,1′-biphenyl-4-yl)-2-(4-methylpiperazin-1-yl)ethyl]cyclohexanol dihydrochloride]",31%
7,"CN1CCN(CC(c2ccc(OCc3ccccc3)c(F)c2)C2(O)CCCCC2)CC1 (stereo not drawn) [Example 414, 1-{1-[4-(benzyloxy)-3-fluorophenyl]-2-(4-methylpiperazin-1-yl)ethyl}cyclohexanol dihydrochloride]",96%
8,"C[C@@H](Oc1ccc(C(CN2CCN(C)CC2)C2(O)CCCCC2)cc1)c1ccccc1 (stereo partly drawn) [Example 469, 1-(2-(4-methylpiperazin-1-yl)-1-{4-[(1R)-1-phenylethoxy]phenyl}ethyl)cyclohexanol dihydrochloride]",12%
9,"CN1CCN(CC(c2ccc(OCc3cccc(C(F)(F)F)c3)c(Cl)c2)C2(O)CCCCC2)CC1 (stereo not drawn) [Example 424, 1-[1-(3-chloro-4-{[3-(trifluoromethyl)benzyl]oxy}phenyl)-2-(4-methylpiperazin-1-yl)ethyl]cyclohexanol dihydrochloride]",75%
10,"OC1(C(CN2CCNCC2)c2ccccc2-c2ccccc2)CCCCC1 (stereo not drawn) [Example 149, 1-[1-(1,1′-biphenyl-2-yl)-2-piperazin-1-ylethyl]cyclohexanol dihydrochloride]",31%
11,"CN1CCN(CC(c2cccc(C#N)c2)C2(O)CCCCC2)CC1 (stereo not drawn) [Example 161, 1-[1-(3-cyanophenyl)-2-(4-methylpiperazin-1-yl)ethyl]cyclohexanol dihydrochloride]",70%
12,"OC1(C(CN2CCCN(Cc3ccccc3)CC2)c2ccc(OC(F)(F)F)cc2)CCCCC1 (stereo not drawn) [Example 302, 1-{2-(4-benzyl-1,4-diazepan-1-yl)-1-[4(trifluoromethoxy)phenyl]ethyl}cyclohexanol dihydrochloride]",50%
13,"OC1(C(CN2CCNCC2)c2ccc(OCc3ccc(C(F)(F)F)cc3)c(Cl)c2)CCCCC1 (stereo not drawn) [Example 419, 1-[1-(3-chloro-4-{[4-(trifluoromethyl)benzyl]oxy}phenyl)-2-piperazin-1-ylethyl]cyclohexanol dihydrochloride]",46%
14,"CN1CCN(CC(c2ccc(OCc3ccccc3)c(C(F)(F)F)c2)C2(O)CCCCC2)CC1 (stereo not drawn) [Example 264, 1-[1-[4-(benzyloxy)-3-(trifluoromethyl)phenyl]-2-(4-methylpiperazin-1-yl)ethyl]cyclohexanol dihydrochloride]",89%
15,"CN1CCN(CC(c2ccc(OCc3ccc(Br)cc3F)c(Cl)c2)C2(O)CCCCC2)CC1 (stereo not drawn) [Example 426, 1-[1-{4-[(4-bromo-2-fluorobenzyl)oxy]-3-chlorophenyl}-2-(4-methylpiperazin-1-yl)ethyl]cyclohexanol dihydrochloride]",84%
16,"OC1(C(CN2CCN(Cc3ccc4c(c3)OCO4)CC2)c2ccc(OC(F)(F)F)cc2)CCCCC1 (stereo not drawn) [Example 285, 1-{2-[4-(1,3-benzodioxol-5-ylmethyl)piperazin-1-yl]-1-[4-(trifluoromethoxy)phenyl]ethyl}cyclohexanol dihydrochloride]",20%
17,"CN1CCN(CC(c2cccc(OCc3ccccc3)c2)C2(O)CCC2)CC1 (stereo not drawn) [Example 115, 1-[1-[3-(benzyloxy)phenyl]-2-(4-methylpiperazin-1-yl)ethyl]cyclobutanol dihydrochloride]",-10%
18,"CN1CCN(CC(c2ccc(OCc3ccccc3)cc2)C2(O)CCCCC2)CC1 (stereo not drawn) [Example 322, 1-[2-(4-Methyl-1-piperazinyl)-1-[4-phenylmethoxy)phenyl]ethyl]cyclohexanol dihydrochloride]",97.2%
19,"OC1(C(CN2CCNCC2)c2ccc(-c3ccccc3Cl)cc2)CCCCC1 (stereo not drawn) [Example 165, 1-[1-(2′-chloro-1,1′-biphenyl-4-yl)-2-piperazin-1-ylethyl]cyclohexanol dihydrochloride]",13%
20,"CN1CCN(CC(c2ccc(-c3cccc(C#N)c3)cc2)C2(O)CCCCC2)CC1 (stereo not drawn) [Example 177, 1-[1-(3′-cyano-1,1′-biphenyl-4-yl)-2-(4-methylpiperazin-1-yl)ethyl]cyclohexanol dihydrochloride]",54%
21,"OC1([C@H](CN2CCNCC2)c2cccc(Oc3ccccc3)c2)CCCCC1 (single isomer, unassigned) [Example 357, dihydrochloride]",87%
22,"Cc1ccc(COc2ccc(C(CN3CCN(C)CC3)C3(O)CCCCC3)cc2F)cc1 (stereo not drawn) [Example 418, 1-[1-(3-fluoro-4-{[4-(methyl)benzyl]oxy}phenyl)-2-(4-methylpiperazin-1-yl)ethyl]cyclohexanol dihydrochloride]",71%
23,"OC1(C(CN2CCNCC2)c2ccc(-c3ccc(Cl)c(Cl)c3)cc2)CCCCC1 (stereo not drawn) [Example 173, 1-[1-(3′,4′-dichloro-1,1′-biphenyl-4-yl)-2-piperazin-1-ylethyl]cyclohexanol dihydrochloride]",35%
24,"OC1(C(CN2CCNCC2)c2ccc(OCc3ccc(C(F)(F)F)cc3)c(F)c2)CCCCC1 (stereo not drawn) [Example 415, 1-[1-(3-fluoro-4-{[4-(trifluoromethyl)benzyl]oxy}phenyl)-2-piperazin-1-ylethyl]cyclohexanol dihydrochloride]",84%
25,"COc1ccccc1COc1ccc(C(CN2CCNCC2)C2(O)CCCCC2)cc1Cl (stereo not drawn) [Example 456, 1-(1-{3-chloro-4-[(2-methoxybenzyl)oxy]phenyl}-2-piperazin-1-ylethyl)cyclohexanol dihydrochloride]",90%

# Same assay, conditions: 10 μM test compound (stated in the cell), [3H]NE uptake
row,Compound,inhibition at 10 µM
1,"CN1CCN(CC(c2ccc(Oc3ccccc3)cc2)C2(O)CCCCC2)CC1 (stereo not drawn) [Example 308, 1-[2-(4-methylpiperazin-1-yl)-1-(4-phenoxyphenyl)ethy]cyclohexanol dihydrochloride]",35.9%

# Same assay, conditions: MDCK-Net6, read-out: % Inhibition @ 1 μM (hNET), 1 μM test compound, [3H]NE uptake
row,Compound,inhibition at 1 µM
1,"CN1CCN(CC(c2ccc(OC(F)(F)F)cc2)C2(O)CCCCC2)CC1 (stereo not drawn) [Example 283, 1-{2-(4-methylpiperazin-1-yl)-1-[4-(trifluoromethoxy)phenyl]ethyl}cyclohexanol dihydrochloride]",70.7%

# Same assay, conditions: [3H]NE uptake, test range 1 to 10,000 nM
row,Compound,EC50
1,"OC1(C(CN2CCNCC2)c2cccc(-c3ccccc3)c2)CCCCC1 (stereo not drawn) [Example 136, 1-[1-(1,1′-biphenyl-3-yl)-2-piperazin-1-ylethyl]cyclohexanol dihydrochloride]",1000 nM
2,"OC1(C(CN2CCNCC2)c2cccc(-c3ccc(Cl)c(Cl)c3)c2)CCCCC1 (stereo not drawn) [Example 135, 1-[1-(3′,4′-dichloro-1,1′-biphenyl-3-yl)-2-piperazin-1-ylethyl]cyclohexanol dihydrochloride]",635 nM
3,"CN1CCN(CC(c2cccc(C#N)c2)C2(O)CCCCC2)CC1 (stereo not drawn) [Example 161, 1-[1-(3-cyanophenyl)-2-(4-methylpiperazin-1-yl)ethyl]cyclohexanol dihydrochloride]",220 nM
